Drawing on patent publication US6395732B1, “Pyrimidin-aminomethyl-pyridine derivatives, their preparation and their use in the control of helicobacter bacteria” (BYK Gulden Lomberg Chemische Fabrik GmbH, priority 1998, dated 2002), this text covers MIC50 and melting point for ten molecules.

SMILES strings stand for the structures.

One series deals with Helicobacter pylori. As to the kind of experiment: Activity against Helicobacter pylori, agar method of Iwahi et al. (MIC 50). The following applies: Helicobacter pylori, 96 h; Columbia agar (Oxoid), growth period of 4 days; approximate values; read-out: Appr. MIC 50. It counts as cell-based. The source says: The compounds of the formula I were investigated with respect to their activity against Helicobacter pylori following the method described by Tomoyuki Iwahi et al. (Antimicrobial Agents and Chemotherapy, 1991, 490-496) using Columbia agar (Oxoid) and a growth period of 4 days.

As usually defined, the melting point is the temperature, or range, at which the solid turns liquid. `Cc1c(OCCSCc2ccco2)ccnc1CNc1ncncc1Cl` [Compound 58, (5-Chloro-pyrimidin-4-yl)-{4-[2-(furan-2-ylmethylsulfanyl)-ethoxy]-3-methyl-pyridin-2-ylmethyl}-amine] gave a melting point of 129 to 130 °C. Besides, the MIC50 with Helicobacter pylori was no more than 0.1 µg/mL.

Regarding `Cc1c(OCCCSCCn2c([N+](=O)[O-])cnc2C)ccnc1CNc1ncncc1Cl` [Compound 56, (5-Chloro-pyrimidin-4-yl)-(3-methyl-4-{3-[2-(2-methyl-5-nitro-imidazol-1-yl)-ethylsulfanyl]-propoxy}-pyridin-2-ylmethyl)-amine], the melting point was 143 to 146 °C. The MIC50 in the series on Helicobacter pylori is no more than 0.1 µg/mL.

In turn, `Cc1nc(C)c(Cl)c(NCc2nccc(SCCOCCSCc3cccnc3)c2C)n1` [Compound 52, (5-Chloro-2,6-dimethyl-pyrimidin-4-yl)-(3-methyl-4-{2-[2-(pyridin-3-ylmethylsulfanyl)-ethoxy]-ethylsulfanyl}-pyridin-2-ylmethyl)-amine] came in with a melting point of 90 to 92 °C. In addition, the MIC50 in the series with Helicobacter pylori was no more than 0.1 µg/mL.

`Cc1nc(C)c(Cl)c(NCc2nccc(SCCCSCc3ccncc3)c2C)n1` [Compound 24, (5-Chloro-2,6-dimethylpyrimidin-4-yl)-{3-methyl-4-[3-(pyridin-4-ylmethylsulfanyl)propylsulfanyl]pyridin-2-ylmethyl}amine]: the melting point was in the range of 124 to 125 °C. Moreover, the MIC50 with Helicobacter pylori was no more than 0.1 µg/mL.

As to `Cc1nc(C)c(Cl)c(NCc2nccc(SCCCSCCSc3ncccn3)c2C)n1` [Compound 41, (5-Chloro-2,6-dimethyl-pyrimidin-4-yl)-(3-methyl-4-{3-[2-(pyrimidin-2-ylsulfanyl)-ethylsulfanyl]-propylsulfanyl}-pyridin-2-ylmethyl)-amine], the melting point is 112 to 115 °C. Also, the MIC50 with Helicobacter pylori was no more than 0.1 µg/mL.

`Cc1nc(C)c(Cl)c(NCc2nccc(OCCOCCSCCn3c([N+](=O)[O-])cnc3C)c2C)n1` [Compound 28, (5-Chloro-2,6-dimethyl-pyrimidin-4-yl)-[3-methyl-4-(2-{2-[2-(2-methyl-5nitro-imidazol-1-yl)ethylsulfanyl]-ethoxy}-ethoxy)-pyridin-2-ylmethyl]-amine] registered a melting point of 102 to 105 °C. The MIC50 in the series on Helicobacter pylori was no more than 0.1 µg/mL.

In the case of `Cc1c(OCCSCc2ccncc2)ccnc1CNc1ncncc1Cl` [Compound 54, (5-Chloro-pyrimidin-4-yl)-{3-methyl-4-[2-(pyridin-4-ylmethylsulfanyl)-ethoxy)-pyridine-2-ylmethyl}-amine], the melting point lay within 119 to 121 °C. Also, the MIC50 in the series with Helicobacter pylori is no more than 0.1 µg/mL.

Take `Cc1nc(C)c(Cl)c(NCc2nccc(SCCOCCOCC(F)(F)F)c2C)n1.Cl` [Compound 4, (5-Chloro-2,6-dimethylpyrimidin-4-yl)-(3-methyl-4-{2-[2-(2,2,2-trifluoroethoxy)ethoxy]ethylsulfanyl}pyridin-2-ylmethyl)amine hydrochloride]: the melting point was 235 to 241 °C (dec.). In addition, in the series with Helicobacter pylori, the MIC50 is no more than 0.1 µg/mL.

Molecule `Cc1nc(C)c(Cl)c(NCc2nccc(SCCCCSCCn3c([N+](=O)[O-])cnc3C)c2C)n1` [Compound 19, (5-Chloro-2,6-dimethylpyrimidin-4-yl)-(3-methyl-4-{4-[2-(2-methyl-5-nitroimidazol-1-yl)-ethylsulfanyl]butylsulfanyl}pyridin-2-ylmethyl)amine] registered a melting point of 142 to 144 °C. Besides, the MIC50 in the series on Helicobacter pylori was no more than 0.1 µg/mL.

`Cc1c(OCCSCCn2c([N+](=O)[O-])cnc2C)ccnc1CNc1ncncc1Cl` [Compound 49, (5-Chloro-pyrimidin-4-yl)-(3-methyl-4-{2-[2-(2-methyl-5-nitro-imidazol-1-yl)-ethylsulfanyl]-ethoxy}-pyridin-2-ylmethyl)-amine]: the melting point lay in the range of 145 to 147 °C. Further, the MIC50 with Helicobacter pylori was no more than 0.1 µg/mL.
